Bounds are passed on as bounds.

This experiment deals with T1, Gag-Pol polyprotein [588-1027]/[588-1147] (Human immunodeficiency virus 1, UniProt P04585).
T1 construct: 588-1027; 588-1147
Nature of the experiment: HIV-1 RT Assay. Conditions: pH 7.8; 37 °C. The source says: The IC50 of reverse transcriptase is the concentration that inhibits 50% of recombinant HIV-1 RT RNA-directed DNA polymerase activity in vitro.
In turn, `O=S(=O)(NCCc1ccccc1)Nc1ccc(Cl)cn1` [[(5-chloropyridin-2-yl)sulfamoyl](2-phenylethyl)amine] registered an IC50 of over 10 µM.
`O=C(CC/N=C(\S)Nc1ccc(Br)cn1)c1cc(F)ccc1F` [3-(5-bromopyridin-2-yl)-1-[3-(2,5-difluorophenyl)-3-oxopropyl]thiourea] displayed a half-inhibitory concentration (IC50) of under 0.025 µM.
As for `O=C(CCNC(=S)Nc1ccc(Br)cn1)c1ccccc1` [3-(5-bromopyridin-2-yl)-1-(3-oxo-3-phenylpropyl)thiourea], the figure is under 0.027 µM.
`N#CN/C(=N\c1ccc(Cl)cn1)NCCc1ccccc1` [5-chloro-2-cyano-1-(2-phenylethyl)pyridine-2-guanidine] came in with an IC50 of over 10 µM.
On to `COc1ccccc1CCN=C(NC#N)Nc1nccs1` [2-cyano-3-[2-(2-methoxyphenyl)ethyl]-1-1,3-thiazol-2-ylguanidine], for which the IC50 is over 10 µM.

As a reminder, the IC50 is the point on the concentration scale where inhibition reaches its midpoint. Lower therefore signals greater potency.

These data come from BindingDB's records for doi:10.1016/s0960-894x(99)00675-7 (Medivir, 2000).
